# Experiments:
# A549 = assay: carboplatin-DNA monoadducts by AMS; assay type: cell-based, human
# Experimental: (§1) NSCLC cell lines were cultured to >90% confluence, dosed with [^14C]carboplatin, and subjected to DNA isolation and AMS analysis. 60 mm dishes were seeded at a density of 1×10^6 cells/dish and allowed to attach overnight in a 37° C. humidified atmosphere containing 5% CO2. At hour 0, cells were dosed with 1 μM (relevant microdose concentration) or 100 μM carboplatin (therapeutically relevant concentration), each comprising 0.3 μM [^14C]carboplatin (50,000 dpm/ml). Cells were incubated with [^14C]carboplatin for 4 h before washing and cultured with carboplatin-free medium to mimic the in vivo carboplatin half-life (1.3-6 hours) in patients. DNA was harvested from the cell lines at hours 0, 2, 4, 8 and 24 hours after initial dosing. Ten micrograms of DNA per sample was converted to graphite and measured by AMS for ^14C/total C quantification. Triplicate sets of AMS experiments were performed for each cell line and time point. The 14C/total C ratio was converted to 14C atoms per DNA base-pair according to the algorithm described herein to provide values of carboplatin-DNA monoadducts per 10^8 nucleotides. The data was plotted as carboplatin-DNA monoadducts per 10^8 nucleotide (nt) vs time (FIGS. 8A and 8B). There was a time-dependent increase in the carboplatin-DNA monoadduct concentration during the first 4 hours of incubation with therapeutic or microdosing carboplatin (FIGS. 8A and 8B). After the cells were washed and incubated with carboplatin-free media, the monoadduct levels decreased over a period of several hours. […] Carboplatin-DNA monoadduct levels in the microdosing group had essentially the same kinetics as the therapeutic group, but with 100-fold lower adduct levels at each time point (FIGS. 8A and 8B).
# H1975 = assay: carboplatin-DNA monoadducts by AMS; assay type: cell-based, human
# Experimental: as §1
# H23 = assay: carboplatin-DNA monoadducts by AMS; assay type: cell-based, human
# Experimental: as §1
# H460 = assay: carboplatin-DNA monoadducts by AMS; assay type: cell-based, human
# Experimental: as §1
# H727 = assay: carboplatin-DNA monoadducts by AMS; assay type: cell-based, human
# Experimental: as §1
# HCC827 = assay: carboplatin-DNA monoadducts by AMS; assay type: cell-based, human
# Experimental: as §1
# H23, H460, and H727 = assay: carboplatin-DNA monoadducts by AMS, average of sensitive NSCLC lines; assay type: cell-based, human; details: three most sensitive cell lines
# Experimental: NSCLC cell lines were cultured to >90% confluence, dosed with [^14C]carboplatin, and subjected to DNA isolation and AMS analysis. 60 mm dishes were seeded at a density of 1×10^6 cells/dish and allowed to attach overnight in a 37° C. humidified atmosphere containing 5% CO2. At hour 0, cells were dosed with 1 μM (relevant microdose concentration) or 100 μM carboplatin (therapeutically relevant concentration), each comprising 0.3 μM [^14C]carboplatin (50,000 dpm/ml). Cells were incubated with [^14C]carboplatin for 4 h before washing and cultured with carboplatin-free medium to mimic the in vivo carboplatin half-life (1.3-6 hours) in patients. DNA was harvested from the cell lines at hours 0, 2, 4, 8 and 24 hours after initial dosing. Ten micrograms of DNA per sample was converted to graphite and measured by AMS for ^14C/total C quantification. Triplicate sets of AMS experiments were performed for each cell line and time point. The 14C/total C ratio was converted to 14C atoms per DNA base-pair according to the algorithm described herein to provide values of carboplatin-DNA monoadducts per 10^8 nucleotides. The data was plotted as carboplatin-DNA monoadducts per 10^8 nucleotide (nt) vs time (FIGS. 8A and 8B). There was a time-dependent increase in the carboplatin-DNA monoadduct concentration during the first 4 hours of incubation with therapeutic or microdosing carboplatin (FIGS. 8A and 8B). […]
# PDX Model BL0293 = assay: drug-DNA adducts in PDX tumor by AMS; assay type: in vivo, NSG mice; details: microdose 0.375 mg/kg carboplatin, 24 h
# Excerpt: (§2) Female NSG mice (5-8 weeks of age, body weight: 20 to 25 g) were obtained from Jackson Laboratories (CA, USA). All animals were kept under pathogen-free conditions and were allowed to acclimatize for at least 4 days prior to any experiments. PDX models bearing the indicated patient derived xenografts were created by subcutaneous injection at the flank of 1 mm^3 tumor tissue. To establish multiple PDXs to allow efficacy studies with multiple drugs, PDXs from passage 2-4 were minced into 1 mm^3 sections and injected subcutaneously into multiple mice. At least 3 mice were used for each treatment group. Tumors were allowed to grow to at about 100 mm^3 before being assessed for drug sensitivity or the induction of DNA adducts by the administration of a microdose or a therapeutic dose of labeled drug. To assess tumor response to chemotherapy, cisplatin was administered at 2 mg/kg IV every 7 days for a total of 3 cycles, or gemcitabine was administered at 150 mg/kg IP every 7 days for a total of 4 cycles. G/C combination chemotherapy consisted of the simultaneous administration of both drugs using the schema described above. Tumor growth was assessed by measuring palpable tumors with a caliper and calculating tumor volume. Drug-DNA adduct frequencies were measured in tumor tissue collected 24 hours after intravenous injection of labeled drug and stored at −80° C. until DNA isolation. DNA was isolated using a modified Wizard procedure (Promega), quantitated by spectrophotometry, and then stored frozen at −20° C. until AMS analysis. Ten micrograms of DNA per sample was converted to graphite and measured by AMS for 14C quantification as previously described.
# (§3) NSG mice bearing the indicated PDX tumors were injected with a microdose of ^14C-labeled carboplatin (FIG. 22A) or ^14C-labeled gemcitabine (FIG. 22B). The microdose of ^14C-labeled carboplatin was 0.375 mg/kg carboplatin, 50,000 dpm/g. The microdose of ^14C-labeled gemcitabine was 0.092 mg/kg gemcitabine, 1000 dpm/g. The doses of each drug administered to the mice were chosen to target 1 μM in plasma concentration of carboplatin and 0.3 μM in plasma concentration of gemcitabine. These plasma concentrations represent 1% of the approximate peak plasma concentration during human chemotherapy. Animals were sacrificed after 24 h and drug-DNA adduct frequency was determined from collected tumor tissue by AMS measurements of ^14C in tumor DNA. Carboplatin DNA-adduct levels correlate with PDX model sensitivity to cisplatin at 24 h after microdosing (FIG. 22A). Gemcitabine DNA-adduct levels correlate with PDX model sensitivity to gemcitabine at 24 h after microdosing (FIG. 22B). […] There is no significant difference in carboplatin-DNA monoadduct levels between the three resistant PDX models. […]
# PDX Model BL0440 = assay: drug-DNA adducts in PDX tumor by AMS; assay type: in vivo, NSG mice; details: microdose 0.375 mg/kg carboplatin, 24 h
# Excerpt: as §2, §3
# [1] = 1 μM carboplatin 4 h, up to 24 hours
# [2] = 1 μM carboplatin 4 h then drug-free
# [3] = 100 μM carboplatin 4 h, up to 24 hours
# [4] = 100 μM carboplatin 4 h then drug-free
smiles,measurement,setting,value
N.N.O=C([O-])C1(C(=O)[O-])CCC1.[Pt+2] [carboplatin],Adduct level-4 hr-microdose,A549; 1 μM carboplatin,2.0 ± 0.4 /10^8 nt
same,AUC of adduct-microdose,A549; [1],31.5 ± 1.6 hr-adducts/10^8 nt
same,Adduct level-24 hr Microdose,A549; [2],0.9 ± 0.0 /10^8 nt
same,Adduct level-4 hr-therapeutic,A549; 100 μM carboplatin,163 ± 74.4 /10^8 nt
same,AUC of adduct-therapeutic,A549; [3],2331 ± 257 hr-adducts/10^8 nt
same,Adduct level-24 hr-therapeutic,A549; [4],74 ± 10.4 /10^8 nt
same,Adduct level-4 hr-microdose,H1975; 1 μM carboplatin,3.3 ± 0.5 /10^8 nt
same,AUC of adduct-microdose,H1975; [1],47.0 ± 4.8 hr-adducts/10^8 nt
same,Adduct level-24 hr Microdose,H1975; [2],1.1 ± 0.6 /10^8 nt
same,Adduct level-4 hr-therapeutic,H1975; 100 μM carboplatin,322 ± 24.1 /10^8 nt
same,AUC of adduct-therapeutic,H1975; [3],4478 ± 353 hr-adducts/10^8 nt
same,Adduct level-24 hr-therapeutic,H1975; [4],108 ± 33.3 /10^8 nt
same,Adduct level-4 hr-microdose,H23; 1 μM carboplatin,7.4 ± 1.4 /10^8 nt
same,AUC of adduct-microdose,H23; [1],136.6 ± 9.0 hr-adducts/10^8 nt
same,Adduct level-24 hr Microdose,H23; [2],5.4 ± 0.1 /10^8 nt
same,Adduct level-4 hr-therapeutic,H23; 100 μM carboplatin,825 ± 5.8 /10^8 nt
same,AUC of adduct-therapeutic,H23; [3],13255 ± 835 hr-adducts/10^8 nt
same,Adduct level-24 hr-therapeutic,H23; [4],414 ± 27.1 /10^8 nt
same,Adduct level-4 hr-microdose,H460; 1 μM carboplatin,6.8 ± 0.2 /10^8 nt
same,AUC of adduct-microdose,H460; [1],85.6 ± 8.4 hr-adducts/10^8 nt
same,Adduct level-24 hr Microdose,H460; [2],1.0 ± 0.4 /10^8 nt
same,Adduct level-4 hr-therapeutic,H460; 100 μM carboplatin,885 ± 36.3 /10^8 nt
same,AUC of adduct-therapeutic,H460; [3],9488 ± 902 hr-adducts/10^8 nt
same,Adduct level-24 hr-therapeutic,H460; [4],177 ± 11.5 /10^8 nt
same,Adduct level-4 hr-microdose,H727; 1 μM carboplatin,6.23 ± 2.73 /10^8 nt
same,AUC of adduct-microdose,H727; [1],61.7 ± 9.0 hr-adducts/10^8 nt
same,Adduct level-24 hr Microdose,H727; [2],1.3 ± 0.1 /10^8 nt
same,Adduct level-4 hr-therapeutic,H727; 100 μM carboplatin,684 ± 223.5 /10^8 nt
same,AUC of adduct-therapeutic,H727; [3],6111 ± 661 hr-adducts/10^8 nt
same,Adduct level-24 hr-therapeutic,H727; [4],174 ± 5.6 /10^8 nt
same,Adduct level-4 hr-microdose,HCC827; 1 μM carboplatin,2.5 ± 0.0 /10^8 nt
same,AUC of adduct-microdose,HCC827; [1],51.7 ± 2.4 hr-adducts/10^8 nt
same,Adduct level-24 hr Microdose,HCC827; [2],1.8 ± 0.3 /10^8 nt
same,Adduct level-4 hr-therapeutic,HCC827; 100 μM carboplatin,295 ± 58.8 /10^8 nt
same,AUC of adduct-therapeutic,HCC827; [3],4941 ± 739 hr-adducts/10^8 nt
same,Adduct level-24 hr-therapeutic,HCC827; [4],162 ± 15.4 /10^8 nt
same,average area under curve (AUC) of carboplatin-DNA monoadducts,"H23, H460, and H727; microdosing",94.61±33.99 hr-monoadducts per 10^8 nt
same,average area under curve (AUC) of carboplatin-DNA monoadducts,"H23, H460, and H727; therapeutic dosing",9617.8±3172.7 hr-monoadducts per 10^8 nt
same,mean carboplatin-DNA monoadduct level,PDX Model BL0293,1.46±0.520 adducts per 10^8 nucleotides
same,mean carboplatin-DNA monoadduct level,PDX Model BL0440,2.73±0.661 adducts per 10^8 nucleotides

# Source: US20200010910A1, “Cytotoxic Chemotherapy-Based Predictive Assays for Acute Myeloid Leukemia” (The Regents of The University of California, priority 2017, published 2020)
